Data: patent US20120071536A1, “N-[(2-AZABICYCLO[2.1.1]HEX-1-YL)-ARYL-METHYL]-BENZAMIDE DERIVATIVES, PREPARATION THEREOF, AND THERAPEUTIC USE THEREOF” (SANOFI, priority 2009, published 2012)
Structures can show the parent of a compound that is named as a salt.

| SMILES | melting point [°C] |
| --- | --- |
| CCN1CC2CC1(C(NC(=O)c1cccc(C(F)(F)F)c1Cl)c1ccccc1)C2.Cl (racemic) | 152 to 155 |
| Nc1ccc(C(NC(=O)c2cccc(C(F)(F)F)c2Cl)C23CC(CN2)C3)cc1 (racemic) (as salt: HCl) [Compound 1, N-[(4-Aminophenyl)(2-azabicyclo[2.1.1]hex-1-yl)methyl]-2-chloro-3-(trifluoromethyl)-benzamide] | 195 to 197 |
| O=C(NC(c1cccc(C(F)(F)F)c1)C12CC(CN1)C2)c1cccc(C(F)(F)F)c1Cl (racemic) (as salt: HCl) [Compound 4, N-[(2-Azabicyclo[2.1.1]hex-1-yl)[3-(trifluoromethyl)phenyl]methyl]-2-chloro-3-(trifluoromethyl)benzamide] | 214 to 217 |
| CC(C)(O)CN1CC2CC1(C(NC(=O)c1c(Cl)ccc(C(F)(F)F)c1Cl)c1ccccc1)C2 (racemic) (as salt: HCl) [Compound 22] | 178.5 to 179 |
| O=C(NC(c1ccccc1)C12CC(CN1CC1CC1)C2)c1cccc(C(F)(F)F)c1Cl (racemic) (as salt: HCl) [Compound 25, 2-Chloro-N-[(2-cyclopropylmethyl-2-azabicyclo[2.1.1]hex-1-yl)(phenyl)methyl]-3-(trifluoromethyl)benzamide] | 240.5 to 241.5 |
| Cc1cccc(C(NC(=O)c2c(Cl)ccc(C(F)(F)F)c2Cl)C23CC(CN2)C3)c1 (racemic) (as salt: HCl) [Compound 29, N-[(2-Azabicyclo[2.1.1]hex-1-yl)(m-tolyl)methyl]-2,6-dichloro-3-(trifluoromethyl)-benzamide] | 146 to 147 |
| CCN1CC2CC1(C(NC(=O)c1c(C)cccc1C)c1ccccc1)C2 (racemic) (as salt: HCl) [Compound 30, N-[(2-Ethyl-2-azabicyclo[2.1.1]hex-1-yl)(phenyl)methyl]-2,6-dimethylbenzamide] | 212 to 214 |
| CCc1ccccc1C(=O)NC(c1ccccc1)C12CC(CN1CC)C2 (racemic) (as salt: HCl) [Compound 31, 2-Ethyl-N-[(2-ethyl-2-azabicyclo[2.1.1]hex-1-yl)(phenyl)methyl]benzamide] | 241 to 242 |
| O=C(NC(c1ccccc1)C12CC(CN1Cc1ccccc1)C2)c1cccc(C(F)(F)F)c1Cl (racemic) (as salt: HCl) [Compound 33, N-[(2-Benzyl-2-azabicyclo[2.1.1]hex-1-yl)(phenyl)methyl]-2-chloro-3-(trifluoromethyl)-benzamide] | 244 to 245.5 |
| C=CCN1CC2CC1(C(NC(=O)c1cc(Br)c(Cl)cc1N)c1ccccc1)C2 (racemic) [Compound 20, N-[(2-Allyl-2-azabicyclo[2.1.1]hex-1-yl)(phenyl)methyl]-2-amino-5-bromo-4-chloro-benzamide] | 66 to 67 |

Next, values leading:

| melting point [°C] | SMILES |
| --- | --- |
| 162.5 to 163.5 | Cl.O=C(NC(c1ccccc1)C12CC(CN1)C2)c1cc(C(F)(F)F)ccc1Cl (racemic) |
| 159.5 to 160.5 | Cc1cccc(C(NC(=O)c2cccc(C(F)(F)F)c2Cl)C23CC(CN2)C3)c1 (racemic) (as salt: HCl) [Compound 2, N-[(2-Azabicyclo[2.1.1]hex-1-yl)(m-tolyl)methyl]-2-chloro-3-(trifluoromethyl)benzamide] |
| 143 to 144 | COc1cccc(C(NC(=O)c2cccc(C(F)(F)F)c2Cl)C23CC(CN2)C3)c1 (racemic) (as salt: HCl) [Compound 3, N-[(2-Azabicyclo[2.1.1]hex-1-yl)(3-methoxyphenyl)methyl]-2-chloro-3-(trifluoro-methyl)benzamide] |
| 232 to 233 | CCS(=O)(=O)c1cc(C(=O)NC(c2ccccc2)C23CC(CN2)C3)c(OC)cc1Cl (racemic) (as salt: HCl) [Compound 15, N-[(2-Azabicyclo[2.1.1]hex-1-yl)(phenyl)methyl]-4-chloro-5-(ethanesulphonyl)-2-methoxybenzamide] |
| 135 to 170 | O=C(NC(c1ccc2ccccc2c1)C12CC(CN1)C2)c1cccc(C(F)(F)F)c1Cl (racemic) (as salt: HCl) [Compound 17, N-[(2-Azabicyclo[2.1.1]hex-1-yl)(naphth-2-yl)methyl]-2-chloro-3-(trifluoromethyl)-benzamide] |
| 153 to 154 | CCCN1CC2CC1(C(NC(=O)c1cc(Br)c(Cl)cc1N)c1ccccc1)C2 (racemic) (as salt: HCl) [Compound 21, 2-Amino-5-bromo-4-chloro-N-[(phenyl)(2-propyl-2-azabicyclo[2.1.1]hex-1-yl)methyl]-benzamide] |
| 187 to 188 | O=C(NC(c1cccc(O)c1)C12CC(CN1)C2)c1cccc(C(F)(F)F)c1Cl (racemic) (as salt: HCl) [Compound 24, N-[(2-Azabicyclo[2.1.1]hex-1-yl)(3-hydroxyphenyl)methyl]-2-chloro-3-(trifluoromethyl)-benzamide] |
| 273.5 to 274.5 | Cc1cccc(C)c1C(=O)NC(c1ccccc1)C12CC(CN1)C2 (racemic) (as salt: HCl) [Compound 27, N-[(2-Azabicyclo[2.1.1]hex-1-yl)(phenyl)methyl]-2,6-dimethylbenzamide] |
| 264 to 265 | CCc1ccccc1C(=O)NC(c1ccccc1)C12CC(CN1)C2 (racemic) (as salt: HCl) [Compound 28, N-[(2-Azabicyclo[2.1.1]hex-1-yl)(phenyl)methyl]-2-ethylbenzamide] |
| 200 to 201 | Cc1c(C(F)(F)F)ccc(Cl)c1C(=O)NC(c1ccccc1)C12CC(CN1)C2 (racemic) (as salt: HCl) [Compound 32, N-[(2-Azabicyclo[2.1.1]hex-1-yl)(phenyl)methyl]-6-chloro-2-methyl-3-(trifluoromethyl)-benzamide] |
| 146 to 147 | Cc1c(C(=O)NC(c2ccccc2)C23CC(CN2)C3)cccc1C(F)(F)F (racemic) [Compound 7, N-[(2-Azabicyclo[2.1.1]hex-1-yl)(phenyl)methyl]-2-methyl-3-(trifluoromethyl)-benzamide] |
| 80.5 to 81.5 | O=C(NC(c1ccccc1)C12CC(CN1)C2)c1c(Cl)ccc(C(F)(F)F)c1Cl (racemic) [Compound 8, N-[(2-Azabicyclo[2.1.1]hex-1-yl)(phenyl)methyl]-2,6-dichloro-3-(trifluoromethyl)-benzamide] |
| 123 to 124 | Cc1ccc(F)c(C(=O)NC(c2ccccc2)C23CC(CN2)C3)c1Cl (racemic) [Compound 10, N-[(2-Azabicyclo[2.1.1]hex-1-yl)(phenyl)methyl]-2-chloro-6-fluoro-3-methylbenzamide] |
| 139.5 to 140.5 | Cc1cccc(C(=O)NC(c2ccccc2)C23CC(CN2)C3)c1Cl (racemic) [Compound 12, N-[(2-Azabicyclo[2.1.1]hex-1-yl)(phenyl)methyl]-2-chloro-3-methylbenzamide] |
| 172.5 to 173 | O=C(NC(c1ccc(F)cc1)C12CC(CN1)C2)c1cccc(C(F)(F)F)c1Cl (racemic) [Compound 16, N-[(2-Azabicyclo[2.1.1]hex-1-yl)(4-fluorophenyl)methyl]-2-chloro-3-(trifluoromethyl)-benzamide] |
